Earlier results as cited in PMC7582876, “Antiproliferative Properties of a Few Auranofin-Related Gold(I) and Silver(I) Complexes in Leukemia Cells and their Interferences with the Ubiquitin Proteasome System” (Molecules, 2020).

System: CEM/ADR5000 cells
Parameters: method as in PMID 18413831
Details: ref [27]; cited from earlier work

In the case of `COc1cccc2c1C(=O)c1c(O)c3c(c(O)c1C2=O)C[C@@](O)(C(=O)CO)C[C@@H]3O[C@H]1C[C@H](N)[C@H](O)[C@H](C)O1` [doxorubicin, Doxorubicin], the resistance to doxorubicin is given as “more than 1000 fold”.
